Reference: US20230024537A1, “Oral Delivery Compositions for Obesity Management” (BOARD OF REGENTS, THE UNIVERSITY OF TEXAS SYSTEM, priority 2021, published 2023)
Blank lines part the entries; values can stand above or below the compound they belong to.

Columns and labels:
[1] = Beta glucan gel mediated oral delivery of nutraceuticals (absorption, pharmacokinetics)
Description: Beta-glucan compositions can be used to delivery other nutrients or therapeutic molecule via oral delivery.

[2] = tested on: high fat diet induced rat model; test: Oral delivery of anti-leptin antibody or leptin protein in high fat diet induced rat model; format: in vivo
Experimental: The inventors have developed an oral antibody or protein delivery platform and investigated feasibility using an anti-leptin antibody. […] The oral delivery vehicle facilitated enhancement of intestinal penetration of the antibody as well as protect the antibody from being damaged within the stomach in presence of acidic gastric juice. […] An oral dose of 5-10 μg leptin protein resulted 10-20% body weight reduction compared to the untreated high fat diet rat. […] Treated groups show less cholesterol contents in their blood which is within the normal range in opposed to the untreated animal that are observed with high cholesterol content.

high fat diet rat = test: Rat animal model, high fat diet with CAGE-Leptin or BG-leptin treatment (body weight, food consumption); format: in vivo
Experimental: Materials and Methods. Rat Animal Model. Rats are fed normal diet for 5 weeks, both male and female, body weight and food consumption is measured. Animals are fed a high fat diet for 5 weeks, body weight and food consumption is measured. Animals are fed high fat diet with CAGE-Leptin treatment for 5 weeks, body weight and food consumption is measured. Animals are fed high fat diet with BG-leptin treatment for 5 weeks, body weight and food consumption is measured.
Four groups of male were getting high fat diet for 2 weeks and then we start administer with cage, cage-leptin ab and leptin ab treatments (FIG. 3).

Compound: leptin protein: Leptin protein (GenBank NP-000221), protein hormone of approx. 16 kDa formed by 146 amino acids
body weight reduction compared to untreated high fat diet rat ([2]; oral dose of 5-10 μg): 10-20%
production of anti leptin antibody ([2]; oral leptin protein): results in production anti leptin antibody
fat content in body ([2]; treated high fat diet rat): significantly less fat content
food consumption, male rat (high fat diet rat; male rats on high fat diet, versus high fat and regular diet control groups, FIG. 4 and FIG. 5): lower amount of food
body weight gain, male rat (high fat diet rat; male rats, FIG. 2): lower than regular and high fat diet male control group

Compound: O=C(O)CCCCC1CCSS1 (racemic) [DL-thioctic acid]
enhancement of pharmacokinetics ([1]; Beta glucan mediated oral delivery, compared with free oral delivery, thioctic acid tested in rat): 10-20 folds

Compound: O=S(=O)([O-])[O-].[Fe+2] [iron sulfate]
constipation problem associated with oral delivery ([1]; enhanced absorption by beta glucan): mitigation of constipation problem
absorption enhanced by Beta glucan ([1]; with Beta glucan, given orally): 60%

Further lines, results first:

enhancement of pharmacokinetics ([1]; rat, in vivo, po): 10 folds
Compound: CC/C=C\C/C=C\C/C=C\C/C=C\C/C=C\C/C=C\CCC(=O)O [Docosahexaenoic acid, docosahexaenoic acid]

enhancement of pharmacokinetics ([1]; rat, in vivo, po): 15-20 folds
Compound: vitamin B12
